In patent publication US5843947A, “N-pyridyl carboxamides and derivatives” (priority 1994, dated 1998):

Legend:
[1] = test system: inflammation induced by carrageenan (plantar edema); experiment: Anti-inflammatory activity: plantar edema using carrageenan; assay type: in vivo, Sprague-Dawley rats; conditions: rat, compounds 10 mg/kg oral 30 min before carrageenan, indomethacin 10 mg/kg
Method: The method used is that of plantar edema using carrageenan. The procedure used is as follows: 1% carrageenan in 0.2 ml of […] is administered into the sole of the right foot of Sprague-Dawley rats weighing 250 g on average. The volume of the paw is measured by plethysmography after one hour and after two hours.
The compounds of the invention are administered in a 10 mg/kg oral dose 30 minutes before the administration of carrageenan. A saline solution is injected into the sole of the left foot, which serves as a control.
The compounds of the invention make it possible to reduce the increase in volume of the right foot relative to that of the left foot (Table 1).

[2] = test system: acute cutaneous inflammation (phorbol ester ear edema); experiment: Activity against acute cutaneous inflammation (topical), phorbol ester ear edema; assay type: in vivo; conditions: mouse, 6 hours
Method: Phorbol ester (phorbol 12-myristate 13-acetate) (5 μg) is applied topically to the front and back surfaces of the right ear of the mouse 30 minutes after application of the vehicle (95% ethanol) or of the agent (1 mg). The difference in thickness between the right ear and the left ear (edema) is measured 6 hours after application.
The percentage of inhibition of cutaneous inflammation relative to a group of animals treated topically with 95% ethanol is calculated. The compound of Example 1, at a rate of 1 mg/ear, allows a 63% reduction of the inflammation. Indomethacin, taken as a reference, at a dose of 2.5 mg/ear, allows a 67% reduction of inflammation.

[3] = test system: arthritis induced by killed Mycobacterium tuberculosis (complete Freund adjuvant); experiment: Study of an activity of anti-arthritic type in rats (complete Freund adjuvant); assay type: in vivo, Lewis rats; conditions: rat, oral, days 1 to 5; day 18
Method: Groups of 5 male or female Lewis rats weighing from 130 to 150 g are used. A suspension of 0.3 mg of killed Mycobacterium tuberculosis in 0.1 cm^3 of mineral oil (complete Freund adjuvant, CFA) is administered into the subplantar region of the right hind foot on day 1. The volumes of the hind feet are measured by water displacement on days 0, 1, 5, 14 and 18. The rats are weighed on days 0 and 18. The test products are suspended in carboxymethylcellulose and administered orally for 5 consecutive days, on days 1 to 5. In parallel, a control group is used in order to eliminate artefacts resulting from the handling of the animals. A group treated with a reference product (hydrocortisone) allows the test to be validated.

[4] = test system: chronic inflammation of the ear induced by repeated phorbol ester; experiment: Curative activity after repeated topical application in chronic inflammation of the ear, repeated phorbol ester (PMA) for 15 days (model of psoriasis); assay type: in vivo; conditions: mouse, 0.5 mg/ear
Method: Phorbol ester (1 μg) is applied topically to the front and back surfaces of the right ear of the mouse on days 0, 2, 4, 7, 9, 11 and 14. The vehicle or the agent is applied topically twice daily, on days 7, 8, 9, 10, 11, 12, 13 and 14, and once on the 15th day. On days 7, 9, 11 and 14 the vehicle or the agent is applied 30 minutes before and after the phorbol ester.
Two parameters are measured
1. Difference in thickness between the right and left ears every day and on days 0, 2, 4, 7, 9, 11 and 14, 6 hours after repeated application of the phorbol ester.
After repeated application of phorbol ester and after 15 days, the thickness reflects not only the presence of an edema and of an infiltration of lymphocyte and monocyte-macrophage neutrophil type cells in the skin tissue (inflammation) but also of an increase in the thickness of the epidermis (epidermal hyperplasia secondary to a proliferation of keratinocytes). […]
The products of the invention, in topical, curative and repeated use, inhibit, between the 8th and 10th days, the chronic inflammation of the right ear (measured, on the one hand, by the difference in thickness between the right ear and the left ear, and, on the other hand, by the difference in weight between the two ears after sacrificing the animal on the 15th day) induced by a repeated application of phorbol ester in mice.

[5] = Study of the diuretic activity (urinary volume); assay type: in vivo, rats; conditions: 6 hours
[6] = test system: chronic inflammation of the ear induced by repeated phorbol ester; conditions: 15 days after repeated application of phorbol ester; cited from earlier work

Cc1cc(C)nc(NC(=O)c2cnccn2)c1
Percentage of inhibition, 1 h [1]: 55%
Percentage of inhibition, 2 h [1]: 64%

Cc1cc(C)nc(NC(=O)Cc2cccs2)c1 [Example 1, N-(4,6-DIMETHYL-2-PYRIDYL)-2-THIENYLACETAMIDE]
reduction of the inflammation ([2]; 1 mg/ear): 63%
reduction in the volume of the right hind foot [3]: 47%

Cc1nc(N)c(NC(=O)Cc2ccsc2)c(C)c1Br [Example 17, N-(2-AMINO-5-BROMO-4,6-DIMETHYL-3-PYRIDYL)-3-THIENYLACETAMIDE]
reduction of the difference in thickness between the two ears [4]: 60%
reduction of the weight difference ([4]; ear punches): 38%

Cc1cc(C)nc(NC(=NN)c2cnccn2)c1 [Example 25, N-(4,6-DIMETHYL-2-PYRIDYL)-2-PYRAZINECARBOXAMIDE HYDRAZONE]
increase of urinary volume (factor relative to an untreated rat) ([5]; 3 mg/kg p.o.): 2.8

COc1ccc2c(c1)c(CC(=O)O)c(C)n2C(=O)c1ccc(Cl)cc1 [Indomethacin, reference compound]
Percentage of inhibition, 1 h [1]: 24%
Percentage of inhibition, 2 h [1]: 64%
reduction of inflammation, reference ([2]; 2.5 mg/ear): 67%
topical activity in the chronic model (in words) [6]: topically inactive

Cc1cc(C)nc(NC(=O)Cc2cccs2)c1 [drawing 58]
Percentage of inhibition, 1 h [1]: 63%
Percentage of inhibition, 2 h [1]: 70%

NS(=O)(=O)c1cc(C(=O)O)c(NCc2ccco2)cc1Cl [furosemide, reference compound]
increase of urinary volume (factor), reference ([5]; rat, 5 mg/kg p.o.): 3

CN1C(C(=O)Nc2ccccn2)=C(O)c2ccccc2S1(=O)=O [piroxicam]
topical activity in the chronic model (in words) [6]: topically inactive

cyclosporin A
topical activity in the chronic model (in words) [6]: topically active
